Assay results taken from US20150157588A1, “Pharmaceutical Composition Comprising Amino-Phenyl-Acetic Acid Octadec-(Z)-9-enyl Ester and Use Thereof for Treating Tumors” (Yeda Research and Development Co., Ltd., priority 2012, published 2015).

Legend:
[1] = system: p53 expressing L-12 mouse B cell line; assay: Apoptosis by hypo-diploid nuclei PI staining, transformed B cell line; assay type: cell-based; details: 10 or 100 μg per ml in 5% ethanol solution, 48 h
Description: Apoptosis was measured by FACS analysis with a hypo-diploid nuclei propidium iodide (PI) staining of an amino-phenyl-acetic acid octadec-(Z)-9-enyl ester treated p53 expressing L-12 mouse B cell line. FIGS. 4A-4C: L-12 cells treated with 0, 10 or 100 μg/ml of amino-phenyl-acetic acid octadec-(Z)-9-enyl ester in ethanol solution, respectively; FIGS. 4D-4F: L-12 cells treated with 0, 10 or 100 μg/ml of the control reagent 4-methyl-piperazino-acetic acid ethyl ester in ethanol solution, respectively; and FIGS. 4G-4I: L-12 cells treated with an ethanol volume corresponding to 0, 10 or 100 μg/ml of amino-phenyl-acetic acid octadec-(Z)-9-enyl ester, respectively. FL2-A is the measure of fluorescence. […]
(§1) B or T-cell apoptosis was detected by flow cytometry. […] The cells were then subjected to flow cytometric analysis; for each sample 10,000 were collected and cell-cycle distribution was analyzed according to relative DNA content (PI staining). […] The cells were then collected, stained by APO-DIRECT TUNNEL kit (Phnxflow, CITY, Calif., USA); mitochondrial potential was measured by DePsipher (R&D Systems, Minneapolis, Minn.) according to the manufacturer's procedure. Intracellular caspase activity was measured by Apostat kit (R&D Systems), according to the manufacturer's procedure. The cells were analyzed by Flow cytometry using FACSort (Becton Dickinson) and CellQuest software (Becton Dickinson). […]

[2] = system: human peripheral blood T cells; assay: Apoptosis by FACS, hypo-diploid nuclei PI staining, healthy T cells; assay type: cell-based; details: 10 μg in ethanol solution, versus control molecule
Description: White bars (left bar of each pair) represent cells treated with 10 μg of amino-phenyl-acetic acid octadec-(Z)-9-enyl ester in ethanol solution, and black bars (right bar of each pair) represent cells treated with 10 μg of the control molecule 4-methyl-piperazino-acetic acid ethyl ester in ethanol solution. The two bars on the left represent freshly isolated T cells and the two bars on the right represent transformed Jurkat cells.
B or T-cell apoptosis was detected by flow cytometry. Briefly, purified cells were seeded in 24 well plates, 5×10^5 per well, and incubated for 48 h at 37° C. 5% CO2 in the presence of HSP60 (heat shock protein 60) at the indicated concentration of amino-phenyl-acetic acid octadec-(Z)-9-enyl ester. […] The cells were then subjected to flow cytometric analysis; for each sample 10,000 were collected and cell-cycle distribution was analyzed according to relative DNA content (PI staining). […] The cells were then collected, stained by APO-DIRECT TUNNEL kit (Phnxflow, CITY, Calif., USA); mitochondrial potential was measured by DePsipher (R&D Systems, Minneapolis, Minn.) according to the manufacturer's procedure. Intracellular caspase activity was measured by Apostat kit (R&D Systems), according to the manufacturer's procedure. The cells were analyzed by Flow cytometry using FACSort (Becton Dickinson) and CellQuest software (Becton Dickinson).

[3] = Light scattering at 90 degrees of aggregates in PBS with 0-20% ethanol; assay type: physicochemical; design: key to intensity of light scattering, relative scale: relative light-scattering intensity; 0% ethanol = 100; details: 10 μM in PBS; for intensity of light scattering, relative scale: 90 degrees, 560 nm
Description: Light scattering at 90 degrees can be used to assess the amount of aggregates in a solution. Higher readings are indicative of a higher degree of aggregation, while lower readings are indicative of disintegration of aggregates into monomers. A series of 10 μM amino-phenyl-acetic acid octadec-(Z)-9-enyl ester solutions was prepared in PBS containing ethanol concentrations of 0-20%. The intensity of light scattering of each solution was recorded at 90 degrees with a 560 nm beam in a Perkin Elmer fluorimeter. The results, presented in a relative scale with respect to the percent ethanol (% ethanol indicated in brackets), were as follows: 100 (0); 98 (0.5); 90 (1): 75 (2); 45(3); 26 (4); 10 (5); 8 (10); 6 (20).

[4] = system: freshly isolated mouse B cells; assay: Spontaneous apoptosis by hypo-diploid nuclei PI staining, primary B cells; assay type: cell-based; details: 1 or 100 μg/ml in ethanol solution
Description: Apoptosis was measured by FACS analysis with a hypo-diploid nuclei propidium iodide (PI) staining of freshly isolated mouse B cells treated with amino-phenyl-acetic acid octadec-(Z)-9-enyl ester in ethanol solution. FIGS. 5A-5C: L-12 cells treated with 0, 1 or 100 μg/ml of amino-phenyl-acetic acid octadec-(Z)-9-enyl ester, respectively; FIGS. 5D-5F: L-12 cells treated with 0, 1 or 100 μg/ml of the control reagent 4-methyl-piperazino-acetic acid ethyl ester, respectively; and FIGS. 5G-5I: L-12 cells treated with an ethanol volume corresponding to 0, 1 or to 100 μg/ml of amino-phenyl-acetic acid octadec-(Z)-9-enyl ester in ethanol solution, respectively.
as §1

In the case of `CCCCCCCC/C=C\CCCCCCCCOC(=O)C(N)c1ccccc1` (stereo not shown) [amino-phenyl-acetic acid octadec-(Z)-9-enyl ester], the “apoptosis / cell cycle (cells in sub-GO state)” value [1] is reported as “induced massive apoptosis”, the apoptosis [2] is reported as “no more apoptosis than with a control molecule” and the “ethanol concentration in whose presence micellar aggregates disintegrate” value [3] is reported as “above 4 % ethanol”. The “intensity of light scattering, relative scale” value (from here on “intensity … relative scale”) ([3]; 0% ethanol) was 100, the “intensity … relative scale” value ([3]; 0.5% ethanol) was 98 and the “intensity … relative scale” value ([3]; 1% ethanol) was 90. The “intensity … relative scale” value ([3]; 2% ethanol) was 75, the “intensity … relative scale” value ([3]; 3% ethanol) was 45 and the “intensity … relative scale” value ([3]; 4% ethanol) was 26. For the same molecule, the “intensity … relative scale” value ([3]; 5% ethanol) was 10, the “intensity … relative scale” value ([3]; 10% ethanol) was 8 and the “intensity … relative scale” value ([3]; 20% ethanol) was 6. The “spontaneous apoptosis / cell-cycle of primary B cells” value [4] was “partially protected from the spontaneous apoptosis”.
